Data published in EP4640679A1, “SALT FORM AND CRYSTAL FORM OF PYRIDINE MULTI-SUBSTITUTED COMPOUND AND PREPARATION METHOD THEREFOR” (Usynova Pharmaceuticals Ltd., priority 2022, dated 2024).

Tests used:
[1] = target: T1, TYK2 protein (His-TVMV-TYK2 JH2 (575-869)) (Homo sapiens, UniProt P29597); test: Tyk2 JH2 enzyme activity test (HTRF tracer displacement); assay type: binding
T1 construct: TYK2 protein (His-TVMV-TYK2 JH2 (575-869))
Protocol: To a buffer solution containing 20 mM of Hepes pH 7.5, 10 mM of MgCl2, 0.015% of Brij-35, 2 mM of DTT and 50 µg/ mL of BSA were added 0.5 nM of TYK2 protein (His-TVMV-TYK2 JH2 (575-869)), 0.2 nM of terbium-labeled His antibody, fluorescein-labeled kinase tracer at the relevant Kd value, and the test compound. The test system was incubated at room temperature for 90 minutes. Subsequently, the generated HTRF (homogeneous time-resolved fluorescence) signal, i.e., the ratio of the fluorescence intensity of the fluorescein acceptor (520 nm) and the terbium donor (495 nm) at the emission wavelength, was measured on an Envision plate reader, and the IC50 value was calculated based on this. The results of in vitro enzyme activity assay of the free base of the compound of the present disclosure are shown in Table 3: Table 3: In vitro enzyme activity test results of the compound of the present disclosure (IC50)

[2] = system: IFNα-stimulated phosphorylated STAT1; test: IFNα-stimulated phosphorylation STAT1 assay in hPBMC (flow cytometry, CD4+ T cells); assay type: cell-based, Human
Protocol: Human peripheral blood mononuclear cells (hPBMC) were seeded at a cell density of 1x10^5 cells/well and placed in an incubator at 37°C for 90 minutes. Then different concentrations of compounds were added to the cells, wherein the concentration range of each compound started from 2 µM, which was serially diluted 5-fold to obtain a total of 8 concentration gradients. The compounds and cells were incubated at 37 °C for 30 minutes. hPBMC were stimulated with IFN-a (1000 U/ml), and then the level of phosphorylated STAT1 in CD4+ T cells was detected by flow cytometry to evaluate the inhibitory activity of the compound on the IFN-α pathway. The results of the in vitro cell activity assay of the free base of the compound of the present disclosure are shown in Table 4: Table 4: In vitro cell activity test results of the compound of the present disclosure (IC50)

[3] = Pharmacokinetic study, oral administration, rat; assay type: in vivo, SD rats; conditions: plasma, 30 mg/kg, 30 mpk
Protocol: (§1) The purpose of this experiment is to study the pharmacokinetics of the test substance in the plasma of male CD-1 mice, SD rats and […] after intravenous injection and oral administration.
(§2) The animals were randomly divided into two groups, with 2 males in each group. The compounds were formulated into the specified formulations (the vehicle was 5 mg/mL of 10% sulfobutyl ether-β-cyclodextrin), and the oral formulations were clear or homogeneous suspensions.
(§3) Whole blood samples were collected from the animals by jugular vein puncture or saphenous vein at 5, 15, 30 minutes, 1, 2, 4, 8, and 24 hours after administration. The whole blood samples were added into centrifuge tubes containing anticoagulants, and centrifuged at 3000g for 15 minutes at 4°C. The supernatant plasma was collected and quickly frozen on dry ice and then stored in a refrigerator at -70 ± 10°C until LC-MS/MS analysis.
(§4) The pharmacokinetic software WinNonlin™ Version 6.3.0 (Pharsight, Mountain View, CA) was used to process the plasma drug concentration data of the compound in a non-compartmental model. The peak concentration (Cmax) and time to peak (Tmax) as well as last measurable time point were directly obtained from the plasma drug concentration-time graph.
(§5) The following pharmacokinetic parameters were calculated using the log-linear trapezoidal method: plasma clearance rate (CL), volume of distribution (Vd), elimination phase half-life (T1/2), mean residence time of drug in vivo from 0 to the terminal time point (MRT0-last), mean residence time of drug in vivo from 0 to infinite time (MRT0-inf), area under the time-plasma concentration curve from 0 to the terminal time point (AUC0-last), area under the time-plasma concentration curve from 0 to infinite time (AUC0-inf), and bioavailability (F). The experimental results of the present disclosure are shown in Table 5: Table 5: Pharmacokinetic test results

[4] = Pharmacokinetic study, oral administration, dog; assay type: in vivo; conditions: plasma, 25 mg/kg, 25 mpk
Protocol: as §1, §2, §3, §4, §5

[5] = Pharmacokinetic study, oral administration, mouse; assay type: in vivo, CD-1 mice; conditions: plasma, 10 mg/kg, 10 mpk
Protocol: as §1, §2, §3, §4, §5

T1 sequence (P29597 575-869, species assumed): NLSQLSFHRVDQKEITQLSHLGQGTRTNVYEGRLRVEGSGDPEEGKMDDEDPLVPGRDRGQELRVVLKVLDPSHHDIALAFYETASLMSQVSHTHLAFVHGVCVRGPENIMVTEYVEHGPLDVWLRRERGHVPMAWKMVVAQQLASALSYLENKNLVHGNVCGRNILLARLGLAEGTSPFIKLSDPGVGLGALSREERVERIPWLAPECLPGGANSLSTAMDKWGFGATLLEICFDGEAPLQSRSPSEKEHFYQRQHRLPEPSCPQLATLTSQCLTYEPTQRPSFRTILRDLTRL

Structure (SMILES)	IC50 ([1]; HTRF, 90 minutes at room temperature) [nM]	inhibitory activity against Tyk2 JH2 ([1]; conclusion in words)	IC50 ([2]; Homo sapiens, CD4+ T, read-out: IFNα-stimulated phosphorylated STAT1 (IC50 nM)) [nM]	Tyk2-related cellular activity on IFNα-stimulated phosphorylated STAT1 ([2]; conclusion in words)	AUC(0-t) [3] [µM·h]	Cmax [3] [µM]	Tmax [3] [min]	bioavailability [3] [%]	AUC(0-t) [4] [µM·h]	Cmax [4] [µM]	Tmax [4] [min]	bioavailability [4] [%]	AUC(0-t) [5] [µM·h]	Cmax [5] [µM]	Tmax [5] [min]	bioavailability [5] [%]
[2H]C([2H])([2H])CC(=O)c1cnc(NC(=O)C2CC2)cc1Nc1cccc(-c2cnc(N=S(C)(C)=O)cn2)c1OC	0.04	strong inhibitory activity	1.1	strong Tyk2-related cellular activity	–	–	–	–	–	–	–	–	–	–	–	–
[2H]C([2H])([2H])CC(=O)c1cnc(NC(=O)C2CC2)cc1Nc1cccc(-c2cnc(N=S(C)(C)=O)cn2)c1OC [Compound of formula (I)]	–	–	–	–	231	44.5	45	65	66.5	16.8	120	103	76	32.4	30	81
